In brackets after ≈: the same amount, converted by molar mass. Read-outs that look alike come from different tables or passages of the source.
Assays:
SK-OV-3 [1] = assay: cells; conditions: Homo sapiens, SK-OV-3, 48 h, read-out: Cytotoxic Effects (IC50)
T98G [2] = assay: cells; conditions: Homo sapiens, 48 h, read-out: Cytotoxic Effects (IC50)
MCF-7 [3] = assay: cells; conditions: Homo sapiens, MCF7, 48 h, read-out: Cytotoxic Effects (IC50)
Hep G2 [4] = assay: cells; conditions: Homo sapiens, HepG2, 48 h, read-out: Cytotoxic Effects (IC50)
DU-145 [5] = assay: cells; conditions: Homo sapiens, DU-145, 48 h
A549 [6] = assay: cells; conditions: Homo sapiens, A549, 48 h, read-out: Cytotoxic Effects (IC50)
HuTu 80 [7] = assay: cells; conditions: Homo sapiens, HuTu80, 48 h, read-out: Cytotoxic Effects (IC50)
M-HeLa [8] = assay: cells; conditions: Homo sapiens, 48 h, read-out: Cytotoxic Effects (IC50)
PANC-1 [9] = assay: cells; conditions: Homo sapiens, PANC-1, 48 h, read-out: Cytotoxic Effects (IC50)
Hep G2 [10] = test system: Hep G2
PC3 [11] = test system: PC3
T98G [12] = test system: T98G
[13] = test system: Pseudomonas aeruginosa ATCC 9027; assay: Antimicrobial activity, serial microdilutions, Pa; assay type: cell-based; set-up: key to Minimum Inhibitory Concentration (MIC) / Minimum bactericidal and fungicidal concentrations (MBC, MFC): – means non-active
Procedure: (§1) The antimicrobial activity of test compounds was determined by serial microdilutions in 96-well plates using Mueller-Hinton broth for bacterial culture and Sabouraud broth for yeast culture. Cultures of Gram-positive bacteria were used in the experiment: Staphylococcus aureus ATCC 6538 P FDA 209P, Bacillus cereus ATCC 10702 NCTC 8035, Enterococcus faecalis ATCC 29212; Gram-negative bacteria: Escherichia coli ATCC 25922, Pseudomonas aeruginosa ATCC 9027; and yeast: Candida albicans ATCC 10231, purchased from the State Collection of Pathogenic Microorganisms and Cell Cultures “SCPM-Obolensk” (Obolensk, Russia). Methicillin-resistant strains of S. aureus (MRSA) were isolated from patients with chronic tonsillitis (MRSA-1) and sinusitis (MRSA-2) in the bacteriological laboratory of the Republican Clinical Hospital (Kazan, Russia). The experiments were carried out in triplicate.

MCF-7 [14] = test system: MCF-7
[15] = test system: Staphylococcus aureus ATCC 6538 P FDA 209P; assay: Antimicrobial activity, serial microdilutions, Sa; assay type: cell-based; conditions: Staphylococcus aureus; for MIC: read-out: Minimum Inhibitory Concentration (MIC); for MBC: read-out: Minimum bactericidal and fungicidal concentrations (MBC, MFC)
Procedure: as §1

[16] = test system: Enterococcus faecalis ATCC 29212; assay: Antimicrobial activity, serial microdilutions, Ef; assay type: cell-based; set-up: key to Minimum Inhibitory Concentration (MIC) / Minimum bactericidal and fungicidal concentrations (MBC, MFC): – means non-active; conditions: for MIC: ATCC29212, read-out: Minimum Inhibitory Concentration (MIC)
Procedure: as §1

PANC-1 [17] = test system: PANC-1
PC3 [18] = assay: cells; conditions: Homo sapiens, PC-3, 48 h, read-out: Cytotoxic Effects (IC50), PC3, MTT assay, 48 h
[19] = test system: Escherichia coli ATCC 25922; assay: Antimicrobial activity, serial microdilutions, Ec; assay type: cell-based; set-up: key to Minimum Inhibitory Concentration (MIC) / Minimum bactericidal and fungicidal concentrations (MBC, MFC): – means non-active; conditions: for MIC / MBC: Escherichia coli; for MIC: ATCC25922, read-out: Minimum Inhibitory Concentration (MIC); for MBC: ATCC25922, read-out: Minimum bactericidal and fungicidal concentrations (MBC, MFC)
Procedure: as §1

MRSA-2 = assay: Antimicrobial activity, serial microdilutions, MRSA-2; assay type: cell-based, S. aureus; conditions: Staphylococcus aureus; for MIC: read-out: Minimum Inhibitory Concentration (MIC); for MBC: read-out: Minimum bactericidal and fungicidal concentrations (MBC, MFC)
Procedure: as §1

[20] = test system: Bacillus cereus ATCC 10702 NCTC 8035; assay: Antimicrobial activity, serial microdilutions, Bc; assay type: cell-based; conditions: Bacillus cereus; for MIC: Bc, read-out: Minimum Inhibitory Concentration (MIC); for MBC: read-out: Minimum bactericidal and fungicidal concentrations (MBC, MFC)
Procedure: as §1

[21] = test system: Candida albicans ATCC 10231; assay: Antimicrobial activity, serial microdilutions, Ca; assay type: cell-based; set-up: key to Minimum Inhibitory Concentration (MIC) / Minimum bactericidal and fungicidal concentrations (MBC, MFC): – means non-active; conditions: for MIC: read-out: Minimum Inhibitory Concentration (MIC)
Procedure: as §1

HuTu 80 [22] = test system: HuTu 80
SK-OV-3 [23] = conditions: reference normal cell line not marked at the place (ns cells)
M-HeLa [24] = conditions: calculated relative to the cell line Chang liver (b)
A549 [25] = conditions: reference normal cell line not marked at the place (ns cells)
MRSA-1 = assay: Antimicrobial activity, serial microdilutions, MRSA-1; assay type: cell-based, S. aureus; conditions: Staphylococcus aureus; for MIC: read-out: Minimum Inhibitory Concentration (MIC); for MBC: read-out: Minimum bactericidal and fungicidal concentrations (MBC, MFC)
Procedure: as §1

DU-145 [26] = conditions: calculated relative to the cell line WI38 (a)
[27] = calculated relative to the cell line Chang liver (b)
[28] = calculated relative to the cell line WI38 (a)

COc1cccc2c1C(=O)c1c(O)c3c(c(O)c1C2=O)C[C@@](O)(C(=O)CO)C[C@@H]3O[C@H]1C[C@H](N)[C@H](O)[C@H](C)O1 [doxorubicin, reference compound]
IC50 (SK-OV-3 [1]): 6700 ± 500 nM | IC50 (T98G [2]): 1000 ± 90 nM | IC50 (MCF-7 [3]): 400 ± 30 nM | IC50 (Hep G2 [4]): 200 ± 10 nM | IC50 (DU-145 [5]; read-out: Cytotoxic Effects (IC50)): 300 ± 20 nM | IC50 (A549 [6]): 700 ± 60 nM | IC50 (HuTu 80 [7]): 200 ± 10 nM | IC50 (M-HeLa [8]): 2100 ± 100 nM | IC50 (PANC-1 [9]): 2200 ± 100 nM

CCCCCCCCC[P+](N(CC)CC)(N(CC)CC)N(CC)CC [4c, Tris(diethylamino)(nonyl)phosphonium iodide]
selectivity index (SI) (Hep G2 [10]; [27]): 2.0 | selectivity index (SI) (PC3 [11]; [27]): 2.7 | IC50 (SK-OV-3 [1]): 12100 ± 1100 nM | IC50 (T98G [2]): 3200 ± 200 nM | selectivity index (SI) (T98G [12]; [27]): 1.5 | Minimum Inhibitory Concentration (MIC) [13]: – | Minimum bactericidal and fungicidal concentrations (MBC, MFC) [13]: – | selectivity index (SI) (MCF-7 [14]; [27]): 2.5 | MIC [15]: 3.9 ± 0.3 µM | MBC [15]: 250 ± 18 µM | MIC ([16]; Enterococcus faecalis): 62.5 ± 5.2 µM | MBC ([16]; Enterococcus faecalis, ATCC29212, read-out: Minimum bactericidal and fungicidal concentrations (MBC, MFC)): 500 ± 48 µM | selectivity index (SI) (PANC-1 [17]; [27]): 2.8 | IC50 (MCF-7 [3]): 1900 ± 100 nM | IC50 (PC3 [18]): 1800 ± 100 nM | MIC [19]: 500 ± 48 µM | MBC [19]: 500 ± 48 µM | MIC (MRSA-2): 7.8 ± 0.6 µM | MBC (MRSA-2): 250 ± 20 µM | MIC [20]: 3.9 ± 0.3 µM | MBC [20]: > 500 µM | IC50 (Hep G2 [4]): 2400 ± 100 nM | Minimum Inhibitory Concentration (MIC) ([21]; Ca): – | Minimum bactericidal and fungicidal concentrations (MBC, MFC) ([21]; Ca): – | IC50 (A549 [6]): 21100 ± 1500 nM | selectivity index (SI) (HuTu 80 [22]; [27]): 1.8 | selectivity index (SI) (SK-OV-3 [23]): ns (ns—no selectivity) | selectivity index (SI) (M-HeLa [24]): 2.8 | selectivity index (SI) (A549 [25]): ns (ns—no selectivity) | IC50 (HuTu 80 [7]): 2600 ± 200 nM | MIC (MRSA-1): 3.9 ± 0.4 µM | MBC (MRSA-1): 125 ± 10 µM | IC50 (M-HeLa [8]): 1700 ± 100 nM | IC50 (PANC-1 [9]): 1700 ± 100 nM

CCCCCCCCC[P+](c1ccccc1)(c1ccccc1)N(CC)CC [6c, (Diethylamino)(nonyl)diphenylphosphonium iodide]
selectivity index (SI) (Hep G2 [10]; [28]): 1.3 | selectivity index (SI) (PC3 [11]; [28]): 8.3 | IC50 (SK-OV-3 [1]): 12700 ± 1100 nM | IC50 (T98G [2]): 2400 ± 100 nM | selectivity index (SI) (T98G [12]; [28]): 3.5 | MIC ([13]; Pseudomonas aeruginosa, ATCC9027, read-out: Minimum Inhibitory Concentration (MIC)): 250 ± 21 µM | MBC ([13]; Pseudomonas aeruginosa, ATCC9027, read-out: Minimum bactericidal and fungicidal concentrations (MBC, MFC)): 250 ± 21 µM | selectivity index (SI) (MCF-7 [14]; [28]): 2.0 | MIC [15]: 3.9 ± 0.3 µM | MBC [15]: 125 ± 11 µM | Minimum bactericidal and fungicidal concentrations (MBC, MFC) [16]: – | MIC ([16]; Enterococcus faecalis): 31.3 ± 5.4 µM | selectivity index (SI) (PANC-1 [17]; [28]): 6.4 | IC50 (MCF-7 [3]): 4200 ± 300 nM | IC50 (PC3 [18]): 1000 ± 80 nM | MIC [19]: 500 ± 46 µM | MBC [19]: 500 ± 47 µM | MIC (MRSA-2): 3.9 ± 0.4 µM | MBC (MRSA-2): 7.8 ± 0.7 µM | MIC [20]: 1.9 ± 0.1 µM | MBC [20]: > 500 µM | IC50 (Hep G2 [4]): 6200 ± 500 nM | Minimum bactericidal and fungicidal concentrations (MBC, MFC) ([21]; Ca): – | MIC ([21]; Candida albicans, ATCC10231): 500 ± 47 µM | IC50 (DU-145 [5]; read-out: Cytotoxic Effects (IC50), DU-145, MTT assay, 48 h): 1300 ± 100 nM | IC50 (A549 [6]): 11400 ± 900 nM | selectivity index (SI) (HuTu 80 [22]; [28]): 42 | selectivity index (SI) (SK-OV-3 [23]): ns (ns—no selectivity) | selectivity index (SI) (A549 [25]): ns (ns—no selectivity) | IC50 (HuTu 80 [7]): 200 ± 10 nM | MIC (MRSA-1): 3.9 ± 0.3 µM | MBC (MRSA-1): 62.5 ± 5.4 µM | IC50 (M-HeLa [8]): 900 ± 70 nM | IC50 (PANC-1 [9]): 1300 ± 100 nM | selectivity index (SI) (DU-145 [26]): 6.4

CC(=O)N1CCN(c2ccc(OCC3COC(Cn4ccnc4)(c4ccc(Cl)cc4Cl)O3)cc2)CC1 (stereo not drawn) [Ketoconazole, reference compound]
Minimum Inhibitory Concentration (MIC) [19]: – | MIC ([21]; Candida albicans, ATCC10231): 7.3 ± 0.5 µM (≈ 3.88 µg/mL) | MBC ([21]; Candida albicans, ATCC10231, read-out: Minimum bactericidal and fungicidal concentrations (MBC, MFC)): 7.3 ± 0.5 µM (≈ 3.88 µg/mL)
